Measurements: patent US8765767B2, “Positive allosteric modulators of mGluR2” (Bristol-Myers Squibb Company, priority 2012, dated 2014)

Key:
human mGluR2 = molecular target: T1, human mGluR2 (Homo sapiens, UniProt Q14416); assay: mGluR2 cAMP assay (HTRF) in HEK293 cells clonally expressing human mGluR2; assay type: cell-based; settings: HEK293 cells expressing human mGluR2, 1 μM forskolin, 1 μM LY-341495, 30 min
T1 construct: expressed in transfected cells; host or cells: HEK293 clonal line
Description: • Cell Culture. Clonally expressed human mGluR2 in HEK293 background was glutamate starved overnight in media without glutamine (GIBCO MEM 12360), containing 10% FBS, 1% penicillin streptomycin. • cAMP Measurement. On the day of the assay, media was removed, cells washed with PBS, cells harvested and pelleted by centrifugation. Cell pellets were resuspended in stimulation buffer without forskolin and counted. A solution of 1.25×10^6 cells/mL was prepared and dispensed to plates using a Combi liquid handler (Thermo). A standard curve was created using a top concentration of cAMP of 1 μM in the stimulation buffer, 1:3 dilutions over 14 points in the absence of cells. Plates were read by time-resolved fluorescence at […] and a ratio was calculated via in house software, (665 nM/618 nM)*10^4. In house software converted the fluorescence value ratios to units of cAMP concentration, which is then used to calculate % inhibition for each test compound. • MGluR2 cAMP Assay Materials and Methods. Compounds were added to white, standard volume 384 non-binding surface plates (Corning 3574). Cells were resuspended in stimulation buffer consisting of Hanks Balanced Salt Solution (14175-095) pH 7.0, 20 mM HEPES, 2.0 mM CaCl2, 5.0 mM MgCl2, and 1 mM IBMX (Sigma 15879), 1 μM forskolin, and 1 μM LY-341495 for 30 min. Buffer without forskolin was used as a negative control. Solutions of D2 and cryptate detection reagents from the CISBIO dynamic cAMP kit (62AM4PEJ) were diluted 1:40 in lysis buffer. Lysis buffer consisted of 50 mM Phosphate Buffer pH 7.0, 800 mM Potassium Fluoride, 0.2% BSA, and 1.0% Triton. Assay reaction was terminated by addition of detection reagents in lysis buffer. One hour later, plates were read on a PE Viewlux. Data was extracted, and concentration response curves generated by fitting the data to a standard 4 parameter logistic equation from which EC50 values were determined.

mGluR2/3 [1] = settings: rats treated with PCP; cited from earlier work
mGluR2/3 [2] = settings: GAD patients; cited from earlier work
mGluR2/3 [3] = settings: schizophrenia patients; cited from earlier work

T1 sequence (Q14416 19-872): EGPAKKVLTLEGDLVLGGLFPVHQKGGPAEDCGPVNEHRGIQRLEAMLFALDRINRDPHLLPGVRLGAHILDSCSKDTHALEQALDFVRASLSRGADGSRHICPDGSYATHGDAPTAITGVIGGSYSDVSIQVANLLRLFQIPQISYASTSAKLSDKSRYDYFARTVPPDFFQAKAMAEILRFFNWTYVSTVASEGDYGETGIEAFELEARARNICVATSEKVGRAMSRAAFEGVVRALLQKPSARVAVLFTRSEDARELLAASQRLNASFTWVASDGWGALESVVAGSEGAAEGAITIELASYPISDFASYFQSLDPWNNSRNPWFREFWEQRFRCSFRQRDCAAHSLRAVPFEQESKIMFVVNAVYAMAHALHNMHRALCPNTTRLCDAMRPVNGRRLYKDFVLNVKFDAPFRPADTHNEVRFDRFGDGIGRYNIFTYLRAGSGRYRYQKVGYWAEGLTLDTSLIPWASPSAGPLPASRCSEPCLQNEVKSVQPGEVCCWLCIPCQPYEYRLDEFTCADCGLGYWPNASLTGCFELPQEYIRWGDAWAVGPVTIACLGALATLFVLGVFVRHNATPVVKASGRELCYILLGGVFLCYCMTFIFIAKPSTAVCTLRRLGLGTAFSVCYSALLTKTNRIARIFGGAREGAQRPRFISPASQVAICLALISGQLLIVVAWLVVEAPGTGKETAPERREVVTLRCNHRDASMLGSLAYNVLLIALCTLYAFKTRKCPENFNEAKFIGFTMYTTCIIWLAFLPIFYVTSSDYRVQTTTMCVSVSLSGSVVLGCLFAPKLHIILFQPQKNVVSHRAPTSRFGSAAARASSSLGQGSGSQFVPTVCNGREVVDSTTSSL

| Compound | EC50 (human mGluR2) [nM] | further results |
| --- | --- | --- |
| Clc1c(NC[C@H]2C[C@@H]2c2cccc3c2OCC3)ccn2c(CC3CC3)nnc12 [Example 35, 8-Chloro-3-(cyclopropylmethyl)-N-(((1S,2S)-2-(2,3-dihydrobenzofuran-7-yl)cyclopropyl)methyl)-[1,2,4]triazolo[4,3-a]pyridin-7-amine] | 3 |  |
| Clc1c(NC[C@@H]2C[C@H]2c2cccc3c2OCC3)ccn2c(CC3CC3)nnc12 [Example 36, 8-Chloro-3-(cyclopropylmethyl)-N-(((1R,2R)-2-(2,3-dihydrobenzofuran-7-yl)cyclopropyl)methyl)-[1,2,4]triazolo[4,3-a]pyridin-7-amine] | 2 |  |
| CN(C[C@H]1C[C@@H]1c1ccc(F)cc1)c1ccn2c(CC3CC3)nnc2c1C(F)(F)F [Example 39, 3-(Cyclopropylmethyl)-N-(((1S,2S)-2-(4-fluorophenyl)cyclopropyl)methyl)-N-methyl-8-(trifluoromethyl)-[1,2,4]triazolo[4,3-a]pyridin-7-amine] | 1 |  |
| CN(C[C@@H]1C[C@H]1c1ccc(F)cc1)c1ccn2c(CC3CC3)nnc2c1C(F)(F)F [Example 40, 3-(Cyclopropylmethyl)-N-(((1R,2R)-2-(4-fluorophenyl)cyclopropyl)methyl)-N-methyl-8-(trifluoromethyl)-[1,2,4]triazolo[4,3-a]pyridin-7-amine] | 7 |  |
| CN(C[C@H]1C[C@@H]1c1ccc(F)cc1)c1ccn2c(CC(F)(F)F)nnc2c1C(F)(F)F [Example 41, N-(((1S,2S)-2-(4-fluorophenyl)cyclopropyl)methyl)-N-methyl-3-(2,2,2-trifluoroethyl)-8-(trifluoromethyl)-[1,2,4]triazolo[4,3-a]pyridin-7-amine] | 2 |  |
| N[C@@]1(C(=O)O)CC[C@H]2[C@H](C(=O)O)[C@H]21 [LY-354740] |  | behavioral effects of PCP (hyper-locomotion, working memory deficits) (mGluR2/3 [1]): reversed the behavioral effects of PCP; brain glutamate levels (mGluR2/3 [1]): lowered brain glutamate levels |
| C[C@H](N)C(=O)N[C@@]1(C(=O)O)CC[C@H]2[C@H](C(=O)O)[C@H]21 [LY-544344] |  | therapeutic effect for anxiety (mGluR2/3 [2]): therapeutic effects |
| CSCC[C@H](N)C(=O)N[C@@]1(C(=O)O)CS(=O)(=O)[C@H]2[C@H](C(=O)O)[C@H]21 [LY-2140023] |  | relief of positive and negative symptoms (mGluR2/3 [3]): relief of positive and negative symptoms |

Now from value to compound, other results behind:

| EC50 (human mGluR2) [nM] | Compound | further results |
| --- | --- | --- |
| 59 | N#Cc1c(NCC2CC2c2ccccc2OC(F)(F)F)ccn2c(CC(F)(F)F)cnc12 (stereo not drawn) [Example 28, 3-(2,2,2-Trifluoroethyl)-7-(((2-(2-(trifluoromethoxy)phenyl)cyclopropyl)methyl)amino)imidazo[1,2-a]pyridine-8-carbonitrile] |  |
| 81 | COc1ccccc1C1CC1CNc1ccn2c(CC(F)(F)F)cnc2c1C#N (stereo not drawn) [Example 29, 7-(((2-(2-Methoxyphenyl)cyclopropyl)methyl)amino)-3-(2,2,2-trifluoroethyl)imidazo[1,2-a]pyridine-8-carbonitrile] |  |
| 108 | N#Cc1c(NCC2CC2c2ccc(F)cc2)ccn2c(CC(F)(F)F)cnc12 (stereo not drawn) [Example 30, 7-(((2-(4-Fluorophenyl)cyclopropyl)methyl)amino)-3-(2,2,2-trifluoroethyl)imidazo[1,2-a]pyridine-8-carbonitrile] |  |
| 1 | COc1cccc(F)c1[C@H]1C[C@@H]1CNc1ccn2c(CC3CC3)nnc2c1Cl [Example 33, 8-Chloro-3-(cyclopropylmethyl)-N-(((1S,2S)-2-(2-fluoro-6-methoxyphenyl)cyclopropyl)methyl)-[1,2,4]triazolo[4,3-a]pyridin-7-amine] |  |
| 1 | COc1cccc(F)c1[C@@H]1C[C@H]1CNc1ccn2c(CC3CC3)nnc2c1Cl [Example 34, 8-Chloro-3-(cyclopropylmethyl)-N-(((1R,2R)-2-(2-fluoro-6-methoxyphenyl)cyclopropyl)methyl)-[1,2,4]triazolo[4,3-a]pyridin-7-amine] |  |
| 4 | Fc1ccccc1[C@H]1C[C@@H]1CNc1ccn2c(CC3CC3)nnc2c1Cl [Example 37, 8-Chloro-3-(cyclopropylmethyl)-N-(((1S,2S)-2-(2-fluorophenyl)cyclopropyl)methyl)-[1,2,4]triazolo[4,3-a]pyridin-7-amine] |  |
| 4 | Fc1ccccc1[C@@H]1C[C@H]1CNc1ccn2c(CC3CC3)nnc2c1Cl [Example 38, 8-Chloro-3-(cyclopropylmethyl)-N-(((1R,2R)-2-(2-fluorophenyl)cyclopropyl)methyl)-[1,2,4]triazolo[4,3-a]pyridin-7-amine] |  |
| 2 | Fc1ccc(F)c([C@H]2C[C@@H]2CNc2ccn3c(CC4CC4)nnc3c2Cl)c1 [Example 43, 8-Chloro-3-(cyclopropylmethyl)-N-(((1S,2S)-2-(2,5-difluorophenyl)cyclopropyl)methyl)-[1,2,4]triazolo[4,3-a]pyridin-7-amine] |  |
| 2 | Fc1ccc(F)c([C@@H]2C[C@H]2CNc2ccn3c(CC4CC4)nnc3c2Cl)c1 [Example 44, 8-Chloro-3-(cyclopropylmethyl)-N-(((1R,2R)-2-(2,5-difluorophenyl)cyclopropyl)methyl)-[1,2,4]triazolo[4,3-a]pyridin-7-amine] |  |
